Results taken from ChEMBL document CHEMBL1909046, “DrugMatrix in vitro pharmacology data”.

What was measured:
Melanocortin receptor 5 = Melanocortin receptor 5 (Homo sapiens, UniProt P33032); format: cell membranes, HEK293, Membrane; conditions: hek293; also: in other assays of this panel Not Active means under 50% inhibition at 10 µM
[1] = DRUGMATRIX: Leukotriene, BLT (LTB4) radioligand binding (ligand: [3H]LTB4); format: cell membranes, Membrane; conditions: u-937; Not Active = under 50% inhibition at 10 µM
[2] = DRUGMATRIX: Glutamate, AMPA radioligand binding (ligand: [3H] AMPA); format: cell membranes, Rattus norvegicus, Wistar, Cerebral cortex, Membrane; conditions: Not Active = under 50% inhibition at 10 µM
[3] = biological target: T1, C-C chemokine receptor type 4 (Homo sapiens, UniProt P51679); format: cell membranes, Membrane; conditions: chem-1; also: in other assays of this panel Not Active means under 50% inhibition at 10 µM
T1 sequence (P51679 whole entry): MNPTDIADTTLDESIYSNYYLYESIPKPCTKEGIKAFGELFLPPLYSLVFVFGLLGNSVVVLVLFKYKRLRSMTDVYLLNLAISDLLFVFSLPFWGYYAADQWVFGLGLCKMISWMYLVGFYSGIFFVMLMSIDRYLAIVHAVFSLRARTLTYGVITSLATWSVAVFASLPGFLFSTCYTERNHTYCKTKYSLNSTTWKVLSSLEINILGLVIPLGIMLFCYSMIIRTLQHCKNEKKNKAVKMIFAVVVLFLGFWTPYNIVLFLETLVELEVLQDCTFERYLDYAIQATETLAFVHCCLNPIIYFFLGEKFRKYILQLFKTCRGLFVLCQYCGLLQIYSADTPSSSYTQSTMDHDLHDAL

[4] = biological target: Matrix metalloproteinase-9 (Homo sapiens, UniProt P14780); format: cell-based;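 also: inhibition of isolated MMP-9 enzyme activity toward a synthetic peptide substrate, from the DrugMatrix protease screening panel; in other assays of this panel Not Active means under 50% inhibition at 10 µM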
Thromboxane-A synthase = biological target: T2, Thromboxane-A synthase (Homo sapiens, UniProt P24557); assay: biochemical; format: tissue-based, Platelet;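 also: enzyme inhibition assay with PGH2 supplied as substrate; in other assays of this panel Not Active means under 50% inhibition at 10 µM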
T2 sequence (P24557 whole entry): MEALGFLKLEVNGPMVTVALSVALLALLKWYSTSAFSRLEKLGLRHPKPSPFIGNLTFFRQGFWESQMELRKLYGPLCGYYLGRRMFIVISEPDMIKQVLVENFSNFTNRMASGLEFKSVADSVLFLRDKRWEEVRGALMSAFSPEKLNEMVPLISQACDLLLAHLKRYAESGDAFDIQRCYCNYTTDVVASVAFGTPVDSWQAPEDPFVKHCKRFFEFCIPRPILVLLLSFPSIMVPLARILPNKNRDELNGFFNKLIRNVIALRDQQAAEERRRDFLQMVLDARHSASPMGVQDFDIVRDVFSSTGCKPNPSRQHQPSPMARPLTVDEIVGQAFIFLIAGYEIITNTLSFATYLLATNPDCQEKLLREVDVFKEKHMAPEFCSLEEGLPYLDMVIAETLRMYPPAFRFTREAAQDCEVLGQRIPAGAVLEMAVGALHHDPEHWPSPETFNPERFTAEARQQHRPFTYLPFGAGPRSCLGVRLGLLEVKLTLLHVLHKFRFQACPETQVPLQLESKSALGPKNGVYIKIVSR

[5] = DRUGMATRIX: ATPase, Na+/K+ enzyme inhibition (substrate: ATP); format: tissue-based, Sus scrofa, Heart; conditions: Not Active = under 50% inhibition at 10 µM

Matrix metalloproteinase-9, sequence (P14780 whole entry): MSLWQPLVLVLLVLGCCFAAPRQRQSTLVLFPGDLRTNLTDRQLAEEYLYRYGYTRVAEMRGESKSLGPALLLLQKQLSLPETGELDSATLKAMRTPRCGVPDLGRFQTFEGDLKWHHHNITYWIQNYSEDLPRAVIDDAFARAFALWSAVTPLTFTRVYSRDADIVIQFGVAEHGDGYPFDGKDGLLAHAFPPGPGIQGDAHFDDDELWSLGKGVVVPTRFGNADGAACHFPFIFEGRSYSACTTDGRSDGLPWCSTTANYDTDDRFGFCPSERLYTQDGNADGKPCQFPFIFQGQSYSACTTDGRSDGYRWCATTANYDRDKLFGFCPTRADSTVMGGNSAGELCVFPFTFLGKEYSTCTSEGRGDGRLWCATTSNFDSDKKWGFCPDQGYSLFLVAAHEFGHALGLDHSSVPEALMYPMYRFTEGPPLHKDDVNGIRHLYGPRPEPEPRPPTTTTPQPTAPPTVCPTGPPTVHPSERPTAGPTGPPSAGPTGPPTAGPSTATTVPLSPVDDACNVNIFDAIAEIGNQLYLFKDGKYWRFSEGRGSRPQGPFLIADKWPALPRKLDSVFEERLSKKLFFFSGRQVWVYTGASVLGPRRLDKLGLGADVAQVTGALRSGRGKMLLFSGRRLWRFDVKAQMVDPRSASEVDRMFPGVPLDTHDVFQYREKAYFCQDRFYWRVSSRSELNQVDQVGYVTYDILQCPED
Melanocortin receptor 5, sequence (P33032 whole entry): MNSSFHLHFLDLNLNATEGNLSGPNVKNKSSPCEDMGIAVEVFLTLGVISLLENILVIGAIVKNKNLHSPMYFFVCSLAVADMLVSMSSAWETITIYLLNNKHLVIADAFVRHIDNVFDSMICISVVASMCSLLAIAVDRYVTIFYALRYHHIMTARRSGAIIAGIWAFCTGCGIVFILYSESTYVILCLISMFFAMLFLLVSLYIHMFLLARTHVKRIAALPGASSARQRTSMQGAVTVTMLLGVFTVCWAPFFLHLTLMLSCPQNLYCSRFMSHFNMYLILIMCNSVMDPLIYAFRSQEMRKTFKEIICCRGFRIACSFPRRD

| SMILES | IC50 (Melanocortin receptor 5) | IC50 [1] | Ki [1] | IC50 [2] | Ki [2] | IC50 [3] | IC50 [4] | IC50 (Thromboxane-A synthase; read-out: IC50) [µM] | IC50 [5] | Ki [5] | IC50 (Thromboxane-A synthase; platelet) |
| --- | --- | --- | --- | --- | --- | --- | --- | --- | --- | --- | --- |
| CCOc1nc2cccc(C(=O)O)c2n1Cc1ccc(-c2ccccc2-c2nnn[nH]2)cc1 | Not Active | Not Active | Not Active | Not Active | Not Active | Not Active | Not Active | 3.06 | Not Active | Not Active | – |
| O=C(O)CCCc1cccs1 | Not Active | Not Active | Not Active | Not Active | Not Active | Not Active | Not Active | – | Not Active | Not Active | Not Active |
| COc1ccccc1N | Not Active | Not Active | Not Active | Not Active | Not Active | Not Active | Not Active | – | Not Active | Not Active | Not Active |
| O=C(c1ccccc1F)N1CCC(Cc2ccccc2)CC1 | Not Active | Not Active | Not Active | Not Active | Not Active | Not Active | Not Active | – | Not Active | Not Active | Not Active |
| Cc1c(O)cccc1C(=O)N[C@@H](CSc1ccccc1)[C@H](O)CN1C[C@H]2CCCC[C@H]2C[C@H]1C(=O)NC(C)(C)C | Not Active | Not Active | Not Active | Not Active | Not Active | Not Active | Not Active | 21.1 | Not Active | Not Active | – |
| CC(O)COC[C@H]1O[C@@H]2O[C@H]3[C@H](O)[C@@H](O)[C@@H](O[C@H]4[C@H](O)[C@@H](O)[C@@H](O[C@H]5[C@H](O)[C@@H](O)[C@@H](O[C@H]6[C@H](O)[C@@H](O)[C@@H](O[C@H]7[C@H](O)[C@@H](O)[C@@H](O[C@H]8[C@H](O)[C@@H](O)[C@@H](O[C@H]1[C@H](O)[C@H]2O)O[C@@H]8COCC(C)O)O[C@@H]7COCC(C)O)O[C@@H]6COCC(C)O)O[C@@H]5COCC(C)O)O[C@@H]4COCC(C)O)O[C@@H]3COCC(C)O (stereo partly drawn) [2-HYDROXYPROPYL-BETA-CYCLODEXTRIN] | Not Active | Not Active | Not Active | Not Active | Not Active | Not Active | Not Active | – | Not Active | Not Active | Not Active |
| NC(=O)c1cccc(N)c1 [3-AMINOBENZAMIDE] | Not Active | Not Active | Not Active | Not Active | Not Active | Not Active | Not Active | – | Not Active | Not Active | Not Active |
| C[C@H]1O[C@H](O[C@H]2[C@H](O)[C@@H](O)[C@@H](O[C@H]3[C@H](O)[C@@H](O)C(O)O[C@@H]3CO)O[C@@H]2CO)[C@H](O)[C@@H](O)[C@@H]1N[C@H]1C=C(CO)[C@@H](O)[C@H](O)[C@H]1O (stereo not given in full) [ACARBOSE] | Not Active | Not Active | Not Active | Not Active | Not Active | Not Active | Not Active | – | Not Active | Not Active | Not Active |
| CC[C@H]1[C@@H]2C[C@H]3[C@@H]4N(C)c5ccccc5[C@]45C[C@@H]([C@@H]2[C@H]5O)N3[C@@H]1O [AJMALINE] | Not Active | Not Active | Not Active | Not Active | Not Active | Not Active | Not Active | – | Not Active | Not Active | Not Active |
| NC12CC3CC(CC(C3)C1)C2 [AMANTADINE] | Not Active | Not Active | Not Active | Not Active | Not Active | Not Active | Not Active | – | Not Active | Not Active | Not Active |
| NCCCNCCSP(=O)(O)O [AMIFOSTINE] | Not Active | Not Active | Not Active | Not Active | Not Active | Not Active | Not Active | – | Not Active | Not Active | Not Active |
| CN(C)CCC=C1c2ccccc2CCc2ccccc21 [AMITRIPTYLINE] | Not Active | Not Active | Not Active | Not Active | Not Active | Not Active | Not Active | – | Not Active | Not Active | Not Active |
| CC(=O)Oc1ccccc1C(=O)O [ASPIRIN] | Not Active | Not Active | Not Active | Not Active | Not Active | Not Active | Not Active | – | Not Active | Not Active | Not Active |
| CC(C)c1c(C(=O)Nc2ccccc2)c(-c2ccccc2)c(-c2ccc(F)cc2)n1CC[C@@H](O)C[C@@H](O)CC(=O)O [ATORVASTATIN] | Not Active | Not Active | Not Active | Not Active | Not Active | Not Active | Not Active | – | Not Active | Not Active | Not Active |
| CC(=O)OC[C@H]1O[C@@H](n2ncc(=O)[nH]c2=O)[C@H](OC(C)=O)[C@@H]1OC(C)=O [AZARIBINE] | Not Active | Not Active | Not Active | Not Active | Not Active | Not Active | Not Active | – | Not Active | Not Active | Not Active |
| C[C@H]1[C@H](NC(=O)/C(=N\OC(C)(C)C(=O)O)c2csc(N)n2)C(=O)N1S(=O)(=O)O [AZTREONAM] | Not Active | Not Active | Not Active | Not Active | Not Active | Not Active | Not Active | – | Not Active | Not Active | Not Active |
| O=C(O)CCNC(=O)c1ccc(/N=N/c2ccc(O)c(C(=O)O)c2)cc1 [BALSALAZIDE] | Not Active | Not Active | Not Active | Not Active | Not Active | Not Active | Not Active | – | Not Active | Not Active | Not Active |
| COc1cc(OC)c(C(=O)CCCN2CCCC2)c(OC)c1 [BUFLOMEDIL] | Not Active | Not Active | Not Active | Not Active | Not Active | Not Active | Not Active | – | Not Active | Not Active | Not Active |
| Cn1c(=O)c2c(ncn2C)n(C)c1=O [CAFFEINE] | Not Active | Not Active | Not Active | Not Active | Not Active | Not Active | Not Active | – | Not Active | Not Active | Not Active |
| ClC(Cl)(Cl)Cl [CARBON TETRACHLORIDE] | Not Active | Not Active | Not Active | Not Active | Not Active | Not Active | Not Active | – | Not Active | Not Active | Not Active |
